According to patent publication US3937838A, “Orally active bronchospasmolytic compounds and their preparation” (priority 1966, dated 1976):
Read-outs that look alike come from different tables or passages of the source.

What was measured:
[1] = test system: histamine induced bronchoconstriction; test: Bronchospasmolytic effect in vivo, Konzett and Rossler (Example 5b); set-up: species or system guinea pig; conditions: measured as described above
Description: Orciprenaline and terbutaline were also tested in vivo according to the method described by Konzett and Rossler [Arch. Exp. Path. Pharmak. 195 (1940) page 71]. In the method of Konzett and Rossler, the animal is ventilated with a constant volume of air. When a certain pressure has been reached in the lung, the volume of air which is in excess of the pulmonary capacity will escape through the valve. This surplus of air is recorded. The testing compounds in the Konzett and Rossler method, bronchial contraction is provoked by administration of histamine. The histamine reduced the capacity of the airways, and the measured overflow increases. In order to see to what extent a test compound counteracts the histamine-induced bronchospasm, the animal is first given an injection of the test compound which is followed 3 minutes later by exposure to histamine.

[2] = test system: bronchospasm induced by histamine aerosol; test: Protecting effect against histamine aerosol in intact guinea pigs (Example 7c); type: in vivo, guinea pig; conditions: Cavia porcellus, m ± s.e., read-out: ED50 (protecting 50 per cent of the animals for more than 4 minutes)
Description: The compounds KWD2109 and KWD2025 have been compared in preventing bronchospasm induced by histamine aerosol in guinea pigs.
The drug was injected intraperitoneally 15 minutes (Table 2) or administered orally 30 minutes (Table 3) before histamine treatment. The dose of the drugs protecting 50 per cent of the animals for more than 4 minutes is denoted "ED50". In untreated animals only 1-2 percent will withstand the histamine aerosol for more than 4 minutes.
To study the duration of the effect, 2 mg/kg was administered orally to intact guinea pigs at different time intervals before the histamine treatment. Two series each including eleven groups of six animals was studied. The groups were tested in histamine aerosol 10, 20, 30, 40, 50, 60, 120, 180, 240, 300 and 360 minutes after the administration of the compound. The per cent of animals in each group protected more than 4 minutes and more than 10 minutes was determined.

[3] = test system: isolated rabbit heart; test: Effect on isolated heart, Langendorff preparation (Example 5d); conditions: same procedure
Description: The effect of the compound of the present invention was also studied on isolated rabbit heart (Langendorff preparation) the method used as described by Anden et al. (Acta Pharmacol. et Toxicol., 21 (1964) page 247). In this procedure, the isolated heart is mounted in a Krebs solution and the test compound is injected into it. Measurements are continuously recorded of the rate and force of contraction.
The tests using epinephrine establish a standard of comparison to evaluate subsequent test compounds in the same preparation.

[4] = test system: isolated guinea pig heart; test: Effect on isolated guinea pig heart, Langendorff (Example 7d); conditions: KWD2025 given index 1.0
Description: The isolated guinea pig heart was perfused according to Langendorff. The method used is described by Anden et al. (Acta. Pharmacol. et Toxicol. 21, 247, 1964). Contractions in the heart were recorded by means of a force displacement transducer and aa Grass polygraph Model 7. Epinephrine was used as reference. KWD2109 and KWD2025 were tested on the same preparation. The comparisons of effects were based on dose for 50 percent increase in chronotropic effect and 10 percent increase in inotropic effect.

[5] = test system: isolated guinea pig auricle; test: Dual bath preparation, effect on left auricle (Example 8a); conditions: same bath
Description: The left auricle was dissected out and mounted together with spirally-cut trachea from the same animal in a 100 ml bath in Kreb's solution (37°C.) well aereated with a mixture of oxygen (95%) and carbon dioxide (5%). The auricle was electrically stimulated with square wave pulses from a Techtronic Stimulator (voltage 2-4; duration: 10 m sec; frequency 1 per second). This is, in general, the same procedure described above in Example 5c.
Using the dual bath preparation, tests were made of the effect on the trachea and auricle of KWD2025 (of the present invention) and of the known drugs KWD2109 and epinephrine. The drug to be tested was added to the bath in the predetermined amount and allowed to act upon the organs for 10 minutes.

[6] = Acute toxicity in mice (Example 9); conditions: mouse, in vivo, iv, mice
[7] = test system: histamine-induced bronchospasm; test: Bronchospasmolytic effect in the anesthetized cat, Konzett & Rossler (Example 14); type: in vivo; conditions: i.v.; based on ED50-values; weight basis; Table 8
Description: Bronchospasmolytic effect was studied according to the method of Konzett & Rossler (see Example 5b above). Bronchospasm was induced by i.v. injections of histamine into the left jugular vein. Overflow was recorded by means of a Grass volume transducer and a Grass polygraph model 5. Changes in arterial mean pressure and heart rate, were continuously recorded during the experiment. Terbutaline was used as reference in all experiments. The comparisons are based on ED50 -values.

[8] = test system: isolated guinea pig heart; test: Effect on isolated heart from guinea pig, Langendorff (Example 16); conditions: for direct heart effect relative to terbutaline: per se
Description: The isolated guinea pig heart was perfused according to Langendorff. The method used is described by Anden et al. [Acta Pharmacol. et Toxicol. 21, 247, (1964)]. Contractions in the heart were recorded by a force displacement transducer and a Grass polygraph model 5. The recovery of the heart was tested with (-) epinephrine between every dose of the substance tested. Terbutaline was used as reference.

[9] = Toxicity study in mice (Example 18); type: in vivo; conditions: mouse, in vivo, mice (NMRI, male), 24 hours, read-out: LD 50 + Standard error
Description: (§1) The toxicity was studied in mice (NMRI, male, 18-28 g) 24 hours after i.v. and oral administration. The animals were observed during five days. No further deaths occurred.

[10] = test system: mice; test: Toxicity study in mice (Example 18); type: in vivo; conditions: indicated by higher oral toxicity
Description: as §1

[11] = test system: guinea pig trachea; test: Bronchospasmolytic effect in vitro (Example 13); conditions: for bronchospasmolytic effect x (-)epinephrine: based on ED50-values, weight basis, Table 7; for bronchospasmolytic effect in vitro relative to terbutaline: per se
Description: The trachea from a guinea pig was dissected out and spirally cut. It was mounted in a water-jacketed bath (37°C.) in Krebs solution and aerated with oxygen (95%) and carbon dioxide (5%). Pilocarpine (2 μg/ml) was added. The load was adjusted to about 2 g and relaxations in the trachea were recorded by means of a Grass force displacement transducer and a Grass polygraph model 5 (see Example 5 above). The cumulative method was used (-)-Epinephrine was used as reference. The comparisons presented in Table 7 are based on ED50 -values.

[12] = test system: bronchoconstriction by histamine aerosol; test: Protecting effect against histamine aerosol in guinea pigs (Example 15); type: in vivo, guinea pig; conditions: for ED50: Cavia porcellus, read-out: ED50 (protecting 50 percent of the animals for more than 4 minutes)
Text: Male guinea pigs (200--300 g) were used. Bronchoconstriction was produced by letting the animals inhale a histamine aerosol.

[13] = test system: arterial mean pressure, pulse pressure, heart rate, peripheral vascular resistance; test: Haemodynamic studies in anesthetized cats (Example 17); type: in vivo, cat
Description: The haemodynamic effects of KWD2058 and terbutaline were studied in anesthetized cats after i.v. injection in the left femoral vein. Three experiments were done. The effects on arterial mean pressure, pulse pressure (right carotid artery) and heart rate were recorded.
To study the effect of the compounds on the peripheral vascular resistance, constant flow was arranged in the right hind limb on two cats by means of a Sigma motor pump connected to arteria femoralis. Injections were made intra-arterially and variations in the peripheral resistance were recorded as pressure changes.

[14] = test system: spirally cut trachea from the guinea pig; test: Dual preparation test in vitro, effect on trachea (Example 5c); conditions: slow infusion; 0.375 μg/min where stated; FIGS. 2-4
Text: (§2) [This procedure is more fully described below in Example 5 (b)].
(§3) FIG. 2 illustrates the effect of epinephrine (EPE) and terbutaline on spirally cut trachea and right auricle from the guinea pig. Both preparations are dissected out from the same animal and run under identical experimental conditions;
(§4) Both preparations are dissected out from the same animal, and run under identical experimental conditions;
(§5) Both preparations are dissected out from the same animal and run under identical experimental conditions;
(§6) The relation between the heart stimulatory effect and bronchodilator effect was studied in vitro on auricle-trachea-preparation from the guinea pig in order to compare the effect on the heart and the effect on the bronchial muscle under identical experimental conditions. Both spontaneously bearing auricle and spirally-cut trachea were placed in the same bath in Krebs solution. Both preparations were taken from the same animal.
(§7) The compound to be tested was slowly infused into the bathing solution and the tension was measured for each of the auricle and trachael preparations.
(§8) In carrying out this dual preparation test, epinephrine was used as a reference. […] Infusion of epinephrine was made over a period of ten minutes. After washing and recovery, the test solution was infused in the same manner and the effect of the test compound was compared with the effect of epinephrine.

[15] = test system: right auricle from the guinea pig; test: Dual preparation test in vitro, effect on auricle (Example 5c); conditions: slow infusion; 0.375 μg/min where stated; FIGS. 2-4
Text: as §2, §3, §4, §5, §6, §7, §8
Referring more specifically to FIG. 2, the upper portion of each chart thereof represents the tension continuously recorded of the auricle preparation (shaded area 1 for the effect of epinephrine on the auricle, ref. no. 2 for the effect of terbutaline infused at a rate of 0.2 μg/min on the auricle, and ref. no. 3 for the effect of terbutaline infused at a rate of 0.375μg/min on the auricle).

Structure (SMILES)	bronchospasmolytic effect x terbutaline [7]	effect on heart rate x terbutaline ([8]; Table 10)	direct heart effect relative to terbutaline [8]	LD50 at 24 h ([9]; iv)	LD50 at 24 h ([9]; po)	oral absorption in comparison with terbutaline [10]	bronchospasmolytic effect x (-)epinephrine [11]	bronchospasmolytic effect in vitro relative to terbutaline [11]	ED50 ([12]; ip, 0.25 h)	ED50 ([12]; po, 0.5 h)	further results
Oc1cc(O)cc(C(O)CNC2CCC2)c1 (stereo not drawn) [KWD2025, 1-(3',5'-dihydroxyphenyl)-2-(cyclobutylamino)-ethanol]	–	–	–	–	–	–	–	–	–	–	bronchospasmolytic effect relative to epinephrine [1]: about 0.4 times; bronchospasmolytic effect relative to orciprenaline [1]: about 1.2 times; ED50 ([2]; ip, 0.25 h, i.p., 15 minutes before histamine-aerosol): 0.6 ± 0.07 mg/kg; ED50 ([2]; po, 0.5 h, peroral, 30 minutes before histamine-aerosol): 1.7 ± 0.3 mg/kg; cardiac stimulatory effect relative to epinephrine [3]: less than 0.1 times; therapeutic index, bronchospasmolytic effect over effect on the heart (inotropic) [4]: 1.0; effect on force of contraction in auricle in concentrations relaxing the trachea [5]: relaxed the trachea without affecting the auricle; LD50 [6]: 54 mg/kg
CC(=O)Oc1cc(OC(C)=O)cc(C(O)CNC(C)(C)C)c1 (stereo not drawn) [KWD2037]	0.7 ± 0.1	0.05 ± 0.01	much less direct heart effect	112 ± 5 mg/kg	2100 mg/kg	improved oral absorption in comparison with terbutaline	0.7	weaker bronchospasmolytic effect in vitro than terbutaline	0.7 mg/kg	0.4 mg/kg	effect on force of contraction x terbutaline ([8]; Table 10): 0.03 ± 0.01
CCC(=O)Oc1cc(OC(=O)CC)cc(C(O)CNC(C)(C)C)c1 (stereo not drawn) [KWD2057]	0.5	0.06	much less direct heart effect	70 ± 4 mg/kg	2200 mg/kg	improved oral absorption in comparison with terbutaline	0.4	weaker bronchospasmolytic effect in vitro than terbutaline	0.2 mg/kg	1 mg/kg	–
Br.CC(C)C(=O)Oc1cc(OC(=O)C(C)C)cc(C(O)CNC(C)(C)C)c1 (stereo not drawn) [KWD2058, 1-(3',5'-diisobutyryloxyphenyl)-2-(t-butylamino)-ethanol hydrobromide]	1.0 ± 0.1	–	much less direct heart effect	52 ± 4 mg/kg	2150 mg/kg	improved oral absorption in comparison with terbutaline	0.6 ± 0.2	weaker bronchospasmolytic effect in vitro than terbutaline	–	–	effect on arterial mean pressure, pulse pressure, heart rate and peripheral vascular resistance relative to terbutaline ([13]; cat, summary): about half; arterial mean pressure, x terbutaline ([13]; i.v., anesthetized cats): 0.4+0.1 × terbutaline; heart rate, x terbutaline ([13]; i.v., anesthetized cats): 0.4±0.1 × terbutaline; pulse rate, x terbutaline ([13]; i.v., anesthetized cats, pulse pressure in text): 0.4±0.1 × terbutaline; change in peripheral resistance, x terbutaline ([13]; intra-arterial, right hind limb, constant flow): 0.4±0.1 × terbutaline; effect on heart rate ([8]; doses up to 100 μg): no effect; ED50 ([12]; 0.5 h, oral, 30 minutes before histamine): 0.15 mg/kg; ED50 ([12]; ip, 0.25 h, i.p., 15 minutes before histamine): 1 mg/kg; protecting effect relative to terbutaline ([12]; oral): 2.5 times; oral absorption in comparison with terbutaline ([12]; seen in oral ED50, Table 9): particularly good oral absorption in comparison with terbutaline
NC[C@H](O)c1ccc(O)c(O)c1 [norepinephrine, reference compound]	–	–	–	–	–	–	–	–	–	–	effect on trachea (relaxation) [14]: without affecting the bronchial muscles; effect on auricle (tension) [15]: strong effect on the heart muscle
